# Data reported in patent US20110237686A1, “FORMULATIONS AND METHODS OF USE” (Cerulean Pharma Inc, priority 2010, published 2011).
# “And” between values parts separate entries of the source, which are not always exact repeats. Equal entries are not always repeated.
# Tests used:
# Type in all cases: physicochemical
# [1] = Cryoprotectant screen, sucrose lyophilization cycle; conditions: PEGylated nanoparticles A; for Dv90 / PDI / Zave: reconstituted
# Procedure: A cryoprotectant screen was performed as follows.
# These conditions are shown below in Table 21.
# [2] = Simple lyophilization of PLGA7K-PVA-PEG2K-30 and PLGA7K-PVA-PEG5K-30 PEGylated nanoparticle formulations; conditions: 2K PEG PLGA nanoparticles 20 mg/mL, cryoprotectant 20 mg/mL (1:1 w/w)
# Text: The results are similar to that obtained for PEGylated nanoparticles A except for SB-β-CD. The result from SB-β-CD supported the H-bonding mechanism for cryoprotection of PEGylated PLGA nanoparticles since SB-β-CD has less hydroxyl groups than α-CD, γ-CD and HP-β-CD (about ⅓ of —OH groups of β-CD are substituted by sulfobutyl groups).
# [3] = Lyophilization using HP-β-CD, freezing with liquid nitrogen and vacuum at room temperature; conditions: PEGylated nanoparticles A, polymer 31.25 mg/mL, vacuum at room temperature;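 also: cyclodextrins or their derivatives tested as cryoprotectant during lyophilization of PEGylated nanoparticles, assessing particle size growth attributed to PEG crystallization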
# Procedure: In this example, a new strategy of using cyclodextrins and their derivatives as a cryoprotectant was tested. […] A cryoprotectant is needed to lyophilize liquid formulation that contain PEGylated nanoparticles A (Entries #1 and #2).
# [4] = Lyophilization using other cyclodextrins
# Procedure: Other CDs were also evaluated at the similar weight ratio of cryoprotectant/nanoparticle.
# [5] = Lyophilization of stealth liposome (Doxil); conditions: lipids 16 mg/mL, cryoprotectant 40 mg/mL (2.5:1 w/w lipid), HP-β-CD lyophilization cycle, post lyophilization
# [6] = polymer 31.25 mg/mL (Doce. 1.5), cryoprotectant 100 mg/mL (3.2:1 w/w)
# [7] = polymer 31.25 mg/mL, cryoprotectant 30 mg/mL (0.96:1 w/w)
# [8] = cryoprotectant 20 mg/mL (0.64:1 w/w)
# [9] = cryoprotectant 40 mg/mL (1.28:1 w/w), listed as HP-beta-CD
# [10] = cryoprotectant 60 mg/mL (1.92:1 w/w)
# [11] = cryoprotectant 80 mg/mL (2.56:1 w/w)
# [12] = PEGylated nanoparticles A, polymer 31.25 mg/mL, CD 40 mg/mL (1.28:1 w/w), post lyophilization
compound,measurement,setting,value
"OC[C@H]1O[C@@H](O[C@H]2[C@H](O)[C@@H](O)C(O)O[C@@H]2CO)[C@H](O)[C@@H](O)[C@H]1O (stereo partly drawn) [Lactose, lactose]",Lyophilized preparation Appearance,[1]; [6],some
same,Recon. Solution Appearance,[1]; [6],cloudy
same,Dv90,[1]; [6],178 nm
same,PDI,[1]; [6],0.352
same,Zave,[1]; [6],183.2 nm
"OC[C@@H](O)[C@@H](O)[C@H](O)[C@H](O)CO [Mannitol, mannitol]",Lyophilized preparation Appearance,[1]; [6],some
same,Recon. Solution Appearance,[1]; [6],cloudy
same,Dv90,[1]; [6],2540 nm
same,PDI,[1]; [6],0.544
same,Zave,[1]; [6],472.7 nm
same,Lyophilized preparation Appearance,[1]; [7],good
same,Recon. Solution Appearance,[1]; [7],precipitation
same,Dv90,[1]; [7],340 nm
same,PDI,[1]; [7],0.638
same,Zave,[1]; [7],499.2 nm
same,outcome after lyophilization (in place of particle size),[2],Precipitated
2-hydroxypropyl-β-cyclodextrin [HP-β-CD],Dv90,[3]; [8],121 nm
same,PDI,[3]; [8],0.095
same,Reconstituted Solution appearance,[3]; [8],some
same,Zave,[3]; [8],90.93 nm
same,Reconstituted Solution appearance,[3]; cryoprotectant 40 mg/mL (1.28:1 w/w),good
same,Dv90,[3]; [9],118 nm and 119 nm
same,PDI,[3]; [9],0.077 and 0.075
same,Zave,[3]; [9],89.43 nm and 90.66 nm
same,Dv90,[3]; [10],119 nm
same,PDI,[3]; [10],0.089
same,Reconstituted Solution appearance,[3]; [10],good
same,Zave,[3]; [10],89.84 nm
same,Dv90,[3]; [11],119 nm
same,PDI,[3]; [11],0.095
same,Reconstituted Solution appearance,[3]; [11],good
same,Zave,[3]; [11],90.60 nm
same,Dv90,[4]; [12],119 nm
same,PDI,[4]; [12],0.075
same,Zave,[4]; [12],90.66 nm
same,Dv90,[5],119 nm
same,PDI,[5],0.071
same,Zave,[5],90.32 nm
"OC[C@H]1O[C@@H]2O[C@H]3[C@H](O)[C@@H](O)[C@@H](O[C@H]4[C@H](O)[C@@H](O)[C@@H](O[C@H]5[C@H](O)[C@@H](O)[C@@H](O[C@H]6[C@H](O)[C@@H](O)[C@@H](O[C@H]7[C@H](O)[C@@H](O)[C@@H](O[C@H]8[C@H](O)[C@@H](O)[C@@H](O[C@H]1[C@H](O)[C@H]2O)O[C@@H]8CO)O[C@@H]7CO)O[C@@H]6CO)O[C@@H]5CO)O[C@@H]4CO)O[C@@H]3CO [β-CD, β-cyclodextrin]",solubility of the lyoprotectant in the formulation,[4]; CD 40 mg/mL,Beta-CD is not soluble at this
